Experiments:
Format in all cases: in vivo
[1] = test system: Lolium perenne (LOLPE); test: Example A glasshouse herbicide test, post-emergence, LOLPE; conditions: Rate 250 g/ha, sprayed after 8 days cultivation, evaluated after 13 days; for pest or weed control at 250 g/ha: Lolium perenne, post-emergence, 312 h, read-out: Post-Emergence Activity LOLPE (100=total damage to plant; 0=no damage to plant)
Procedure: (§1) Seeds of a variety of test species are sown in standard soil in pots. After cultivation for one day (pre-emergence) or after 8 days cultivation (post-emergence) under controlled conditions in a glasshouse (at 24/16° C., day/night; 14 hours light; 65% humidity), the plants are sprayed with an aqueous spray solution derived from the formulation of the technical active ingredient in acetone/water (50:50) solution containing 0.5% Tween 20 (polyoxyethelyene sorbitan monolaurate, CAS RN 9005-64-5).
(§2) The test plants are then grown in a glasshouse under controlled conditions in a glasshouse (at 24/16° C., day/night; 14 hours light; 65% humidity) and watered twice daily. After 13 days for pre and post-emergence, the test is evaluated (100=total damage to plant; 0=no damage to plant).
(§3) Lolium perenne (LOLPE), Alopecurus myosuroides (ALOMY), Echinochloa crus-galli (ECHCG), Avena fatua (AVEFA)

[2] = test system: Alopecurus myosuroides (ALOMY); test: Example A glasshouse herbicide test, post-emergence, ALOMY; conditions: Rate 250 g/ha, sprayed after 8 days cultivation, evaluated after 13 days; for pest or weed control at 250 g/ha: Alopecurus myosuroides, post-emergence, 312 h, read-out: Post-Emergence Activity ALOMY (100=total damage to plant; 0=no damage to plant)
Procedure: as §1, §2, §3

[3] = test system: Echinochloa crus-galli (ECHCG); test: Example A glasshouse herbicide test, post-emergence, ECHCG; conditions: Rate 250 g/ha, sprayed after 8 days cultivation, evaluated after 13 days; for pest or weed control at 250 g/ha: Echinochloa crus-galli, post-emergence, 312 h, read-out: Post-Emergence Activity ECHCG (100=total damage to plant; 0=no damage to plant)
Procedure: as §1, §2, §3

[4] = test system: Avena fatua (AVEFA); test: Example A glasshouse herbicide test, post-emergence, AVEFA; conditions: Rate 250 g/ha, sprayed after 8 days cultivation, evaluated after 13 days; for pest or weed control at 250 g/ha: Avena fatua, post-emergence, 312 h, read-out: Post-Emergence Activity AVEFA (100=total damage to plant; 0=no damage to plant)
Procedure: as §1, §2, §3

[5] = test system: Lolium perenne (LOLPE); test: Example A glasshouse herbicide test, pre-emergence, LOLPE; conditions: Rate 250 g/ha, sprayed after cultivation for one day, evaluated after 13 days; for pest or weed control at 250 g/ha: Lolium perenne, pre-emergence, 312 h, read-out: Pre-Emergence Activity LOLPE (100=total damage to plant; 0=no damage to plant)
Procedure: as §1, §2, §3

[6] = test system: Alopecurus myosuroides (ALOMY); test: Example A glasshouse herbicide test, pre-emergence, ALOMY; conditions: Rate 250 g/ha, sprayed after cultivation for one day, evaluated after 13 days; for pest or weed control at 250 g/ha: Alopecurus myosuroides, pre-emergence, 312 h, read-out: Pre-Emergence Activity ALOMY (100=total damage to plant; 0=no damage to plant)
Procedure: as §1, §2, §3

[7] = test system: Echinochloa crus-galli (ECHCG); test: Example A glasshouse herbicide test, pre-emergence, ECHCG; conditions: Rate 250 g/ha, sprayed after cultivation for one day, evaluated after 13 days; for pest or weed control at 250 g/ha: Echinochloa crus-galli, pre-emergence, 312 h, read-out: Pre-Emergence Activity ECHCG (100=total damage to plant; 0=no damage to plant)
Procedure: as §1, §2, §3

[8] = test system: Avena fatua (AVEFA); test: Example A glasshouse herbicide test, pre-emergence, AVEFA; conditions: Rate 250 g/ha, sprayed after cultivation for one day, evaluated after 13 days; for pest or weed control at 250 g/ha: Avena fatua, pre-emergence, 312 h, read-out: Pre-Emergence Activity AVEFA (100=total damage to plant; 0=no damage to plant)
Procedure: as §1, §2, §3

[9] = test system: Winter Wheat variety 'Hereward'; test: Example B crop damage test, post-emergence, unsafened wheat; conditions: Rate 250 g/ha; post-emergence spray after 8 days cultivation; no safener; evaluated after 13 days
Procedure: Seeds of the Winter Wheat variety ‘Hereward’ were sown in standard soil in pots. After 8 days cultivation under controlled conditions in a glasshouse (at 24/16° C., day/night; 14 hours light; 65% humidity), the plants were sprayed post-emergence with an aqueous spray solution derived from the formulation of the technical active ingredient in acetone/water (50:50) solution containing 0.5% Tween 20 (polyoxyethelyene sorbitan monolaurate, CAS RN 9005-64-5).
(§4) The test plants were then grown in a glasshouse under controlled conditions in a glasshouse (at 24/16° C., day/night; 14 hours light; 65% humidity) and watered twice daily. After 13 days for pre and post-emergence, the test was evaluated (100=total damage to plant; 0=no damage to plant).

[10] = test system: Winter Wheat variety 'Hereward'; test: Example B crop damage test, post-emergence, wheat seed treated with safener cloquintocet mexyl; conditions: Rate 250 g/ha; post-emergence spray 8 days after sowing; seed treated with cloquintocet mexyl 0.5 g/kg dry seed; evaluated after 13 days
Procedure: Seeds of the Winter Wheat variety ‘Hereward’ were seed treated with a wettable powder formulation of the cereal herbicide safener, cloquintocet mexyl, at a rate of 0.5 grams per kilogram of dry seed prior to the initiation of glasshouse testing. One seed was sown per 1.5 inch plastic pot into a sandy loam soil at a depth of 1 cm, 8 days prior to application of the test compounds and was watered and grown under controlled conditions in a glasshouse (at 24/16° C., day/night; 14 hours light; 65% humidity). The plants were sprayed post-emergence with an aqueous spray solution derived from the formulation of the technical active ingredient in acetone/water (50:50) solution containing 0.5% Tween 20 (polyoxyethelyene sorbitan monolaurate, CAS RN 9005-64-5).
as §4

Row | Compound | Post-Emergence Activity LOLPE (100=total damage to plant; 0=no damage to plant) [1] | Post-Emergence Activity ALOMY (100=total damage to plant; 0=no damage to plant) [2] | Post-Emergence Activity ECHCG (100=total damage to plant; 0=no damage to plant) [3] | Post-Emergence Activity AVEFA (100=total damage to plant; 0=no damage to plant) [4] | Pre-Emergence Activity LOLPE (100=total damage to plant; 0=no damage to plant) [5] | Pre-Emergence Activity ALOMY (100=total damage to plant; 0=no damage to plant) [6] | Pre-Emergence Activity ECHCG (100=total damage to plant; 0=no damage to plant) [7] | Pre-Emergence Activity AVEFA (100=total damage to plant; 0=no damage to plant) [8] | pest or weed control at 250 g/ha [1] [%] | pest or weed control at 250 g/ha [2] [%] | pest or weed control at 250 g/ha [3] [%] | pest or weed control at 250 g/ha [4] [%] | pest or weed control at 250 g/ha [5] [%] | pest or weed control at 250 g/ha [6] [%] | pest or weed control at 250 g/ha [7] [%] | pest or weed control at 250 g/ha [8] [%] | Winter Wheat (Hereward) damage (100=total damage to plant; 0=no damage to plant) [9] | Winter Wheat (Hereward) + cloquintocet mexyl damage (100=total damage to plant; 0=no damage to plant) [10]
1 | 2,2-dimethyl-propionic acid 4-(4-fluoro-benzyl)-3-oxo-2-(2,4,6-trimethyl-phenyl)-cyclopent-1-enyl ester [Compound B9] | 80 | 70 | 80 | 20 | 100 | 90 | 70 | 40 |  |  |  |  |  |  |  |  |  | 
2 | Cc1cc(C)c(C2C(=O)C/C(=C\C3CCCCC3)C2=O)c(C)c1 (stereo not shown) [Compound A1] |  |  |  |  |  |  |  |  | 80 | 80 | 90 | 80 | 100 | 70 | 100 | 50 | 60 | 50
3 | Cc1cc(C)c(C2C(=O)CC(CC3CCCCC3C)C2=O)c(C)c1 (stereo not shown) [Compound A29] |  |  |  |  |  |  |  |  | 90 | 0 | 50 | 0 | 90 | 50 | 90 | 50 |  | 
4 | COC1CCC(/C=C2\CC(=O)C(c3c(C)cc(C)cc3C)C2=O)CC1 (stereo not shown) [Compound A39, 4-[1-(4-Methoxy-cyclohexyl)-meth-(E)-ylidene]-2-(2,4,6-trimethyl-phenyl)-cyclopentane-1,3-dione] |  |  |  |  |  |  |  |  | 50 | 90 | 100 | 90 | 50 | 60 | 100 | 80 |  | 
5 | CC(=O)OC1CCC(CC2CC(=O)C(c3c(C)cc(C)cc3C)=C2OC(=O)C(C)(C)C)CC1 (stereo not shown) [Compound B4] |  |  |  |  |  |  |  |  | 90 | 60 | 70 | 80 |  |  |  |  |  | 
6 | Cc1cc(C)c(C2=C(OC(=O)C(C)(C)C)C(CC3CCC(=NO)CC3)CC2=O)c(C)c1 (stereo not shown) [Compound B5] |  |  |  |  |  |  |  |  |  |  |  |  | 90 | 70 | 70 | 40 | 40 | 10
7 | Cc1cc(C)c(C2=C(OC(=O)C(C)(C)C)CC(Cc3cccc(Oc4ccccc4)c3)C2=O)c(C)c1 (stereo not shown) [Compound B7] |  |  |  |  |  |  |  |  | 20 | 20 | 20 | 0 | 20 | 30 | 0 | 0 |  | 
8 | Cc1cc(C)c(C2=C(OC(=O)C(C)(C)C)CC(Cc3ccc(F)cc3)C2=O)c(C)c1 (stereo not shown) [Compound B8] |  |  |  |  |  |  |  |  | 70 | 40 | 40 | 20 | 100 | 70 | 50 | 30 |  | 
9 | Cc1cc(C)c(C2=C(OC(=O)C(C)(C)C)CC(Cc3ccccc3C)C2=O)c(C)c1 (stereo not shown) [Compound B10] |  |  |  |  |  |  |  |  | 90 | 50 | 40 | 30 | 100 | 30 | 30 | 20 |  | 
10 | Cc1cc(C)c(C2=C(OC(=O)C(C)(C)C)CC(Cc3ccccc3)C2=O)c(C)c1 (stereo not shown) [Compound B12] |  |  |  |  |  |  |  |  | 90 | 60 | 50 | 30 | 90 | 30 | 40 | 20 |  | 
11 | Cc1cccc(CC2CC(OC(=O)C(C)(C)C)=C(c3c(C)cc(C)cc3C)C2=O)c1 (stereo not shown) [Compound B13] |  |  |  |  |  |  |  |  | 80 | 60 | 60 | 30 | 70 | 40 | 60 | 20 |  | 
12 | Cc1cc(C)c(C2=C(OC(=O)C(C)(C)C)CC(Cc3ccc(C#N)cc3)C2=O)c(C)c1 (stereo not shown) [Compound B14] |  |  |  |  |  |  |  |  | 60 | 70 | 70 | 50 | 80 | 60 | 50 | 10 |  | 
13 | Cc1cc(C)c(C2=C(OC(=O)C(C)(C)C)CC(Cc3cc(F)cc(F)c3)C2=O)c(C)c1 (stereo not shown) [Compound B15] |  |  |  |  |  |  |  |  | 70 | 10 | 50 | 10 | 70 | 20 | 40 | 20 |  | 
14 | Cc1cc(C)cc(CC2CC(OC(=O)C(C)(C)C)=C(c3c(C)cc(C)cc3C)C2=O)c1 (stereo not shown) [Compound B16] |  |  |  |  |  |  |  |  | 40 | 30 | 50 | 10 | 80 | 40 | 50 | 10 |  | 
15 | Cc1cc(C)c(C2=C(OC(=O)C(C)(C)C)CC(Cc3ccc(S(C)(=O)=O)cc3)C2=O)c(C)c1 (stereo not shown) [Compound B18] |  |  |  |  |  |  |  |  | 50 | 70 | 80 | 80 | 70 | 60 | 80 | 60 |  | 
16 | COc1ccc(CC2CC(OC(=O)C(C)(C)C)=C(c3c(C)cc(C)cc3C)C2=O)cc1 (stereo not shown) [Compound B19] |  |  |  |  |  |  |  |  | 80 | 80 | 30 | 60 | 80 | 40 | 10 | 30 |  | 

— patent publication US8791303B2, “Herbicides” (Syngenta Limited, priority 2009, dated 2014)
